Values quoted from earlier work, collected in US6703045B2, “Composition and method for maintaining blood glucose level” (Council of Scientific & Industrial Research, priority 2001, dated 2004).

[1] = approximate incidence in patients

Cc1cnc(C(=O)NCCc2ccc(S(=O)(=O)NC(=O)NC3CCCCC3)cc2)cn1 [Glipizide, 1-cyclohexyl-3-[[p-[2-(5-methylpyrazinecarboxamido)ethyl]phenyl]sulfonyl] urea]
incidence of constipation and gastralgia [1]: one in one hundred
incidence of nausea and diarrhea [1]: one in seventy
incidence of dizziness, drowsiness, and headache (each) (patients): about one in fifty
